Measured values published in ChEMBL document CHEMBL5291721, “A preclinical secondary pharmacology resource illuminates target-adverse drug reaction associations of marketed drugs” (Nat Commun, 2023).

Key:
Progesterone receptor = target: T1, Progesterone receptor (Homo sapiens, UniProt P06401)
T1 sequence (P06401 whole entry): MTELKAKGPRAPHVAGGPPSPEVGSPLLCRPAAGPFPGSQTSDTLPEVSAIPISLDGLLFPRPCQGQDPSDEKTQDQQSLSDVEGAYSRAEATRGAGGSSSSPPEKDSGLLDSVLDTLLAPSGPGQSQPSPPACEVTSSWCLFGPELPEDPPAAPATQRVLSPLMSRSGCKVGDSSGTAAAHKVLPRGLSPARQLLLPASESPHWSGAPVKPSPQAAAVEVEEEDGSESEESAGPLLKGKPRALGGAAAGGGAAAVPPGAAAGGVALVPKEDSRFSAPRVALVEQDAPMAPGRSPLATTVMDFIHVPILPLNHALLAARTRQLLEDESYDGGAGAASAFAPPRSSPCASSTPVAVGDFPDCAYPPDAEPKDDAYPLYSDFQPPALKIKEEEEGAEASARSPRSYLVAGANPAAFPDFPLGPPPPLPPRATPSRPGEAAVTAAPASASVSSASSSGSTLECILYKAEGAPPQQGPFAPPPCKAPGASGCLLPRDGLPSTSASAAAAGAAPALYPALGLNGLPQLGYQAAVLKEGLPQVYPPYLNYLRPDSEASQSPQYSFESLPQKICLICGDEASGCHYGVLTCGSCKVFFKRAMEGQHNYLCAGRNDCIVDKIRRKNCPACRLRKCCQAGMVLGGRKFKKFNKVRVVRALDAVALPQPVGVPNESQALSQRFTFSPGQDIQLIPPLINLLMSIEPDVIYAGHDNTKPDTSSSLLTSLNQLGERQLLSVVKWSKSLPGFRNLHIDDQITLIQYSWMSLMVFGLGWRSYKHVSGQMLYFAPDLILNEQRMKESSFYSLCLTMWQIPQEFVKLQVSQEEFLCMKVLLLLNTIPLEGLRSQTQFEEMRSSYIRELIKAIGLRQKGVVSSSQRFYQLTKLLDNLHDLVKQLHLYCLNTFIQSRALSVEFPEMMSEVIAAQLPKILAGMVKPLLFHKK

[1] = target: T2, Muscarinic acetylcholine receptor M2 (Homo sapiens, UniProt P08172)
T2 sequence (P08172 whole entry): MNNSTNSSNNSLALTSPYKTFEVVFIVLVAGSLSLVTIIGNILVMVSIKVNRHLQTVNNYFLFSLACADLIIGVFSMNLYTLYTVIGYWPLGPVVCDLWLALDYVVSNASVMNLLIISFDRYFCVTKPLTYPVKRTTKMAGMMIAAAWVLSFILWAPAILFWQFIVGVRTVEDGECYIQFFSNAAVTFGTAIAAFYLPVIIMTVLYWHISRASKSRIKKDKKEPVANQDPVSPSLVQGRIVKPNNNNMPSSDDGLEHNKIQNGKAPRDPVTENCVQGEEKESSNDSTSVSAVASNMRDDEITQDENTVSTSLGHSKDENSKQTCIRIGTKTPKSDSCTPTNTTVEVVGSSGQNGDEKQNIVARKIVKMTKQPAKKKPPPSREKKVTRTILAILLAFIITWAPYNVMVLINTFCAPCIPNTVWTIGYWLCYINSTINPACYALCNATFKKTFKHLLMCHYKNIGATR

D(1A) dopamine receptor = D(1A) dopamine receptor (Homo sapiens, UniProt P21728)
D(1A) dopamine receptor, sequence (P21728 whole entry): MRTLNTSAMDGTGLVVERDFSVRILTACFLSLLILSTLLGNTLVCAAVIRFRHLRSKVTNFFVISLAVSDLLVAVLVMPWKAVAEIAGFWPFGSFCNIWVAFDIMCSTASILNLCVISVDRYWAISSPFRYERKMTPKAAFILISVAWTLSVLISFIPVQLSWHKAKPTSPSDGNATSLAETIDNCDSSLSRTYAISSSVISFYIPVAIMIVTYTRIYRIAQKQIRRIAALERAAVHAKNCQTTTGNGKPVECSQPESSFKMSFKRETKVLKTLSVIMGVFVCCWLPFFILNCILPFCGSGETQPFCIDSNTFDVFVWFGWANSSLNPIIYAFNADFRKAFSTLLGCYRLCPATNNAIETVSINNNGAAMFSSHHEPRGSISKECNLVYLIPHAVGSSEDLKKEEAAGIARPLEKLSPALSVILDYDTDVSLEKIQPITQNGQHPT

Mu-type opioid receptor = Mu-type opioid receptor (Homo sapiens, UniProt P35372)
Mu-type opioid receptor, sequence (P35372 whole entry): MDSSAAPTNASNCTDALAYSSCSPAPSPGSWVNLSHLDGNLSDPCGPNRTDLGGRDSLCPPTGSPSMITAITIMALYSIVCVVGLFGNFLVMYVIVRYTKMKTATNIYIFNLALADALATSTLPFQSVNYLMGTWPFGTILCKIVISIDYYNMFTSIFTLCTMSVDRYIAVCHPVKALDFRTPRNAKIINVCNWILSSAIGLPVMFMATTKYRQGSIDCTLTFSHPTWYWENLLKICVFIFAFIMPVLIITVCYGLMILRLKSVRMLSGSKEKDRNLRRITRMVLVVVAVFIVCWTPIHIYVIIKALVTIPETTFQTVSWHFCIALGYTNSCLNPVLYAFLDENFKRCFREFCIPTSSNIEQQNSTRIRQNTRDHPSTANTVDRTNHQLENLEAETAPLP

Thromboxane A2 receptor = target: T3, Thromboxane A2 receptor (Homo sapiens, UniProt P21731); format: functional, cell-based
T3 sequence (P21731 whole entry): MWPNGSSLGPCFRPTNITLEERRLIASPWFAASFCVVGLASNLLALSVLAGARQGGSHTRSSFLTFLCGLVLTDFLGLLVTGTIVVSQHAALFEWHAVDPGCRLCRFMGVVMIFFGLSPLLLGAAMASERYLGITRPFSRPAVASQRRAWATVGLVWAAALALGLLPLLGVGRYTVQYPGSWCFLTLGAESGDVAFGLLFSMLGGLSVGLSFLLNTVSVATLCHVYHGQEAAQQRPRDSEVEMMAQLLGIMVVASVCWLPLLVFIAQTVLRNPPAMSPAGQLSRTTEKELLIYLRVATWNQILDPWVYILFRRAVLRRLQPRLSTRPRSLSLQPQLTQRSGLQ

Bile salt export pump = Bile salt export pump (Homo sapiens, UniProt O95342); format: functional
[2] = target: T4, Prostaglandin G/H synthase 1 (Homo sapiens, UniProt P23219); format: functional
T4 sequence (P23219 whole entry): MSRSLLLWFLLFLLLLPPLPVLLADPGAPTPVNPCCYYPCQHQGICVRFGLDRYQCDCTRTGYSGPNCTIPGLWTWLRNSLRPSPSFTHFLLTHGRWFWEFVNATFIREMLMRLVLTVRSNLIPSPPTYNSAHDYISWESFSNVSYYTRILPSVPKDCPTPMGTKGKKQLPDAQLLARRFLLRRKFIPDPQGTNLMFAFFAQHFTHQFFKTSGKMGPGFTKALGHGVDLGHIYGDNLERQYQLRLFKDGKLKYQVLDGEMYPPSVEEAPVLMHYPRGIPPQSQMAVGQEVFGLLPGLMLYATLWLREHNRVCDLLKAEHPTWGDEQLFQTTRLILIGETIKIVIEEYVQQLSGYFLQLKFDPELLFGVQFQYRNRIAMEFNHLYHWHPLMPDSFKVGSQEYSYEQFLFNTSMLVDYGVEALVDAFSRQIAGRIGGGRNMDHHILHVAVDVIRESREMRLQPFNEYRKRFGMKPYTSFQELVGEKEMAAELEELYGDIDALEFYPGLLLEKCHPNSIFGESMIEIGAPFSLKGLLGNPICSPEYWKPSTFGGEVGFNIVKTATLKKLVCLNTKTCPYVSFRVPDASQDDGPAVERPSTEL

D(3) dopamine receptor = D(3) dopamine receptor (Homo sapiens, UniProt P35462)
D(3) dopamine receptor, sequence (P35462 whole entry): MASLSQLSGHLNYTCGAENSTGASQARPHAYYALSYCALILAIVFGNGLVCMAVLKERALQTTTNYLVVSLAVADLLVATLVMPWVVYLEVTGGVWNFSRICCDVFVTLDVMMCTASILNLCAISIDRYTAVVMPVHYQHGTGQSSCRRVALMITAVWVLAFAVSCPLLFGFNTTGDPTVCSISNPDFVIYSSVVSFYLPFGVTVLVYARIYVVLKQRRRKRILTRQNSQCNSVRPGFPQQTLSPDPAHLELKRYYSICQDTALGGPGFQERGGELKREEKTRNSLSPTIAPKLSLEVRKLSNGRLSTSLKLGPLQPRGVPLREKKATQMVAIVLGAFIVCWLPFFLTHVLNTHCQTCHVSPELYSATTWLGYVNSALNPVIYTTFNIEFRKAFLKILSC

[3] = target: T4, Prostaglandin G/H synthase 1; format: functional; remark: listed apart in the source
[4] = target: cGMP-inhibited 3',5'-cyclic phosphodiesterase 3A (Homo sapiens, UniProt Q14432); format: functional
Histamine H3 receptor = Histamine H3 receptor (Homo sapiens, UniProt Q9Y5N1)
Histamine H3 receptor, sequence (Q9Y5N1 whole entry): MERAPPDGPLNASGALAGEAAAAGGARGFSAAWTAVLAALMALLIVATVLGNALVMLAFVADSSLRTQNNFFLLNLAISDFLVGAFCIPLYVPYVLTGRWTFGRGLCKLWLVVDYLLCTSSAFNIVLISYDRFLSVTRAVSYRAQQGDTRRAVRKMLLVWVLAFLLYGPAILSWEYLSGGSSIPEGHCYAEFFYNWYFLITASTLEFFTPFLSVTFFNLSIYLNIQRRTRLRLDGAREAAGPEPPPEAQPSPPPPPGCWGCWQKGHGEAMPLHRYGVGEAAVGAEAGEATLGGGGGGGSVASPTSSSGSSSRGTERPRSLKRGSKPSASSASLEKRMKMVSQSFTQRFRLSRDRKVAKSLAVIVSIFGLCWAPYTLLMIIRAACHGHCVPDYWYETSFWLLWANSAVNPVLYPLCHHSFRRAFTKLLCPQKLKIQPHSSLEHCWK

[5] = target: T5, Amine oxidase [flavin-containing] A (Homo sapiens, UniProt P21397); format: functional
T5 sequence (P21397 whole entry): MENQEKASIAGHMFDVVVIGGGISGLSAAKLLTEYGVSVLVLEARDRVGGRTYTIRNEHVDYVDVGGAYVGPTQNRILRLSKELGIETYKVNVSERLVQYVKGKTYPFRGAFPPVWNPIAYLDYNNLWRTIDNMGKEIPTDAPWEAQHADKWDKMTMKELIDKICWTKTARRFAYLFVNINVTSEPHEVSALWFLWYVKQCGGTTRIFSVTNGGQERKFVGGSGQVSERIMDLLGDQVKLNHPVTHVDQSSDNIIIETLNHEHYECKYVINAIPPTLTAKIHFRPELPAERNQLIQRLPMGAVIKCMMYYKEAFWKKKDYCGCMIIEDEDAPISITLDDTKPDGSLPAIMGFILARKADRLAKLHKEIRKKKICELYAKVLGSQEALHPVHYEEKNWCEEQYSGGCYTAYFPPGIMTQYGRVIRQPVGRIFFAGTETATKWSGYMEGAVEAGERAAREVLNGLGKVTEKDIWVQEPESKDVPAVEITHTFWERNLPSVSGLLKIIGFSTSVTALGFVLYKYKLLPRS

[6] = target: 3',5'-cyclic-AMP phosphodiesterase 4A (Homo sapiens, UniProt P27815); format: functional
3',5'-cyclic-AMP phosphodiesterase 4A, sequence (P27815 whole entry): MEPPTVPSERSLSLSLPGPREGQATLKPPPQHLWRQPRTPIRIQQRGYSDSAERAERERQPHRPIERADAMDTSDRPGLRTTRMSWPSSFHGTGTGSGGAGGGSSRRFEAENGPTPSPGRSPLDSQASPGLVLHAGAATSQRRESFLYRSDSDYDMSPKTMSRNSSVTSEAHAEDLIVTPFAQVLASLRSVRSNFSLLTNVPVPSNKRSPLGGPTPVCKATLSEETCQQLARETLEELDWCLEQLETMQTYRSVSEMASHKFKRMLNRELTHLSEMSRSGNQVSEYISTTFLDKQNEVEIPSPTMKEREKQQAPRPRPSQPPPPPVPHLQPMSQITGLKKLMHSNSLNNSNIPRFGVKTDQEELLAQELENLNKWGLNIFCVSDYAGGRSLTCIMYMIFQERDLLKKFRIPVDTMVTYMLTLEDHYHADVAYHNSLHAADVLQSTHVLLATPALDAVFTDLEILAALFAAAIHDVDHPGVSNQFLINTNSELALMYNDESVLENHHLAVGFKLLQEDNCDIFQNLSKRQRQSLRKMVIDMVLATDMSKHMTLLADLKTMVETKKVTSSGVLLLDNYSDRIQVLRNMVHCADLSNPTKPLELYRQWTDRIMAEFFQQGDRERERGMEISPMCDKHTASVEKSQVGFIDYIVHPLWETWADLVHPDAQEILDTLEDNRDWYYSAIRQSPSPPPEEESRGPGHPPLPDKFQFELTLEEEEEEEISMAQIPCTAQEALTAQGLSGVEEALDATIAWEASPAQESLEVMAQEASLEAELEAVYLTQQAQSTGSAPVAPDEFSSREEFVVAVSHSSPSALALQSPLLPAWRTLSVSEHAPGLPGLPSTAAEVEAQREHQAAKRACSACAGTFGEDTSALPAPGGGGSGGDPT

[7] = target: Voltage-gated inwardly rectifying potassium channel KCNH2 (Homo sapiens, UniProt Q12809); format: functional
Voltage-gated inwardly rectifying potassium channel KCNH2, sequence (Q12809 whole entry): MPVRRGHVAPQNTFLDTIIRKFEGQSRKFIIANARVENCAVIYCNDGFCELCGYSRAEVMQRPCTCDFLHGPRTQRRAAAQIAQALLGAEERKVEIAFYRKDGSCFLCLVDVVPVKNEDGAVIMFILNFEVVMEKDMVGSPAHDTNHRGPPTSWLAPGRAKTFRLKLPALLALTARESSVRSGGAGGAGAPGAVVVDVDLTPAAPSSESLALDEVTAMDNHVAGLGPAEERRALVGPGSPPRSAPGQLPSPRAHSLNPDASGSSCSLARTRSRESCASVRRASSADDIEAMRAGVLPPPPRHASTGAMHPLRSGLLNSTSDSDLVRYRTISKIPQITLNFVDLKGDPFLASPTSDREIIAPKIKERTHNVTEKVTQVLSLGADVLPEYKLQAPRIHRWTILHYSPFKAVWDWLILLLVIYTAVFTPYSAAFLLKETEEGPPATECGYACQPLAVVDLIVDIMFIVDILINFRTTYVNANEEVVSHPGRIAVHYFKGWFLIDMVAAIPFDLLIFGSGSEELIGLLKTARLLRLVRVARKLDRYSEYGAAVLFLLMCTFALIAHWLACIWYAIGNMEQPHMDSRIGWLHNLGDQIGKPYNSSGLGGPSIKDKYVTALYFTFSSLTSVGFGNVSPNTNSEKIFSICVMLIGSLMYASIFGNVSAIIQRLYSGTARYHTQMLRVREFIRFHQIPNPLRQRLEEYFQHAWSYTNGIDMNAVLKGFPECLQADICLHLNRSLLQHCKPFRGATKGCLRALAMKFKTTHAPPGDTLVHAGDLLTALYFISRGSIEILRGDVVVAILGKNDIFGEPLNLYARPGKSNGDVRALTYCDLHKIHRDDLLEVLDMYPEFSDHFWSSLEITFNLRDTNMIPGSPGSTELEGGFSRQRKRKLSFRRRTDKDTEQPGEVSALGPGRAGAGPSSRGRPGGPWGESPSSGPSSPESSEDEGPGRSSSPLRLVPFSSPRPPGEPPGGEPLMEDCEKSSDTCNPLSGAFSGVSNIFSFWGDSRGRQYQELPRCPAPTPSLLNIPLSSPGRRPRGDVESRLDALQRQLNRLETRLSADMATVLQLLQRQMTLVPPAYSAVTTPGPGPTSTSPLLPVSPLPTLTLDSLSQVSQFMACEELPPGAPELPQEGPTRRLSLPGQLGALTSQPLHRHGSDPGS

Acetylcholinesterase = Acetylcholinesterase (Homo sapiens, UniProt P22303); format: functional
Acetylcholinesterase, sequence (P22303 whole entry): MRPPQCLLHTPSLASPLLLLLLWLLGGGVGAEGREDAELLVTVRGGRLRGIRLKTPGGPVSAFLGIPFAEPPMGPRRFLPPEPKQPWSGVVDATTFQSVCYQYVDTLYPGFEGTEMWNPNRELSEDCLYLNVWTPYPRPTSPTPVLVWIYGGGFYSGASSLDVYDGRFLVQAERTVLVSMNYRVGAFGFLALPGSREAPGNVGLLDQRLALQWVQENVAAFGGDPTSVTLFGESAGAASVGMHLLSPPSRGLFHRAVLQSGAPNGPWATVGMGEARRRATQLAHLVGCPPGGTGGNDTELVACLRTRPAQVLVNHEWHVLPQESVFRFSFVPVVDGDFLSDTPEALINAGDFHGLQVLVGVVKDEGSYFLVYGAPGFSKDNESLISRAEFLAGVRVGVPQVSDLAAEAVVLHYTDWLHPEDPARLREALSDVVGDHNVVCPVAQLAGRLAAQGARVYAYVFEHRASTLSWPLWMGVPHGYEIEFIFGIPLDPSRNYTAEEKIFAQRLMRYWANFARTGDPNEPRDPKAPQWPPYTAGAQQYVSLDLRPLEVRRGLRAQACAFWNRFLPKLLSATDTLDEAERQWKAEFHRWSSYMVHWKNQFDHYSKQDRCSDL

Prothrombin = Prothrombin (Homo sapiens, UniProt P00734); format: functional
Further: assay procedure not described here.

| Compound | AC50 (Progesterone receptor) | AC50 [1] | AC50 (D(1A) dopamine receptor) | AC50 (Mu-type opioid receptor) | AC50 (Thromboxane A2 receptor) | AC50 (Bile salt export pump) | AC50 [2] | AC50 (D(3) dopamine receptor) | AC50 [3] | AC50 [4] | AC50 (Histamine H3 receptor) | AC50 [5] | AC50 [6] | AC50 [7] | AC50 (Acetylcholinesterase) | AC50 (Prothrombin) |
| --- | --- | --- | --- | --- | --- | --- | --- | --- | --- | --- | --- | --- | --- | --- | --- | --- |
| OC[C@@H](O)[C@@H](O)[C@H](O)[C@@H](O)CO [SORBITOL] | > 30 µM | > 30 µM | > 30 µM | > 30 µM | > 30 µM | > 300 µM | > 30 µM | > 30 µM | > 30 µM | > 30 µM | > 30 µM | > 30 µM | > 30 µM | > 30 µM | > 30 µM | > 30 µM |
| COc1cc2nccc(Oc3ccc(NC(=O)C4(C(=O)Nc5ccc(F)cc5)CC4)cc3)c2cc1OC [CABOZANTINIB] | > 10 µM | 9.32 µM | 4.42 µM | > 30 µM | 17.5 µM | 8.8 µM | > 30 µM | > 30 µM | > 30 µM | 27.9 µM | > 30 µM | 25.4 µM | > 30 µM | 8.3 µM | > 30 µM | > 30 µM |
